# According to PubChem BioAssay (NCI):
#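 Exposure lasted 48 hours, with cells grown in 96-well plates and compounds tested at five concentrations. The concentration for 50% growth inhibition is given as GI50. TGI marks complete inhibition of growth.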
# Key:
# Assay in all cases: inhibition of tumour cell growth, NCI panel, 48 h
# 786-0 renal = tested on: 786-0 renal
# A498 renal = tested on: A498 renal
# A549 NSCLC = tested on: A549 NSCLC
# ACHN renal = tested on: ACHN renal
# BT-549 breast = tested on: BT-549 breast
# CAKI-1 renal = tested on: CAKI-1 renal
# CCRF-CEM leukemia = tested on: CCRF-CEM leukemia
# COLO 205 colon = tested on: COLO 205 colon
# DU-145 prostate = tested on: DU-145 prostate
# EKVX NSCLC = tested on: EKVX NSCLC
# HCC-2998 colon = tested on: HCC-2998 colon
# HCT-116 colon = tested on: HCT-116 colon
# HCT-15 colon = tested on: HCT-15 colon
# HL-60(TB) leukemia = tested on: HL-60(TB) leukemia
# HOP-62 NSCLC = tested on: HOP-62 NSCLC
# HOP-92 NSCLC = tested on: HOP-92 NSCLC
# HS 578T breast = tested on: HS 578T breast
# HT29 colon = tested on: HT29 colon
# IGROV1 ovarian = tested on: IGROV1 ovarian
# K-562 leukemia = tested on: K-562 leukemia
# KM12 colon = tested on: KM12 colon
# LOX IMVI melanoma = tested on: LOX IMVI melanoma
# M14 melanoma = tested on: M14 melanoma
# MALME-3M melanoma = tested on: MALME-3M melanoma
# MCF7 breast = tested on: MCF7 breast
# MDA-MB-231 breast = tested on: MDA-MB-231 breast
# MDA-MB-435 = tested on: MDA-MB-435
# MOLT-4 leukemia = tested on: MOLT-4 leukemia
# NCI-H226 lung = tested on: NCI-H226 lung
# NCI-H23 lung = tested on: NCI-H23 lung
# NCI-H460 lung = tested on: NCI-H460 lung
# NCI-H522 lung = tested on: NCI-H522 lung
# NCI/ADR-RES ovarian = tested on: NCI/ADR-RES ovarian
# OVCAR-3 ovarian = tested on: OVCAR-3 ovarian
# OVCAR-4 ovarian = tested on: OVCAR-4 ovarian
# OVCAR-5 ovarian = tested on: OVCAR-5 ovarian
# OVCAR-8 ovarian = tested on: OVCAR-8 ovarian
# PC-3 prostate = tested on: PC-3 prostate
# RPMI-8226 leukemia = tested on: RPMI-8226 leukemia
# RXF 393 renal = tested on: RXF 393 renal
# SF-268 CNS = tested on: SF-268 CNS
# SF-295 CNS = tested on: SF-295 CNS
# SF-539 CNS = tested on: SF-539 CNS
# SK-MEL-2 melanoma = tested on: SK-MEL-2 melanoma
# SK-MEL-28 melanoma = tested on: SK-MEL-28 melanoma
# SK-MEL-5 melanoma = tested on: SK-MEL-5 melanoma
# SK-OV-3 ovarian = tested on: SK-OV-3 ovarian
# SN12C renal = tested on: SN12C renal
# SNB-19 CNS = tested on: SNB-19 CNS
# SNB-75 CNS = tested on: SNB-75 CNS
# SR leukemia = tested on: SR leukemia
# SW-620 colon = tested on: SW-620 colon
# T-47D breast = tested on: T-47D breast
# TK-10 renal = tested on: TK-10 renal
# U251 CNS = tested on: U251 CNS
# UACC-257 melanoma = tested on: UACC-257 melanoma
# UACC-62 melanoma = tested on: UACC-62 melanoma
# UO-31 renal = tested on: UO-31 renal
smiles,measurement,setting,value
Cc1ncc(C(=O)Nc2ccc(CN3CCN(C)CC3)c(C(F)(F)F)c2)cc1C#Cc1cnc2cccnn12,GI50,786-0 renal,1050 nM
same,TGI,786-0 renal,3160 nM
same,GI50,A498 renal,703 nM
same,TGI,A498 renal,1470 nM
same,GI50,A549 NSCLC,320 nM
same,TGI,A549 NSCLC,1530 nM
same,GI50,ACHN renal,287 nM
same,TGI,ACHN renal,1530 nM
same,GI50,BT-549 breast,1230 nM
same,TGI,BT-549 breast,3720 nM
same,GI50,CAKI-1 renal,365 nM
same,TGI,CAKI-1 renal,2820 nM
same,GI50,CCRF-CEM leukemia,199 nM
same,TGI,CCRF-CEM leukemia,20700 nM
same,GI50,COLO 205 colon,200 nM
same,TGI,COLO 205 colon,1310 nM
same,GI50,DU-145 prostate,413 nM
same,TGI,DU-145 prostate,2170 nM
same,GI50,EKVX NSCLC,683 nM
same,TGI,EKVX NSCLC,2900 nM
same,GI50,HCC-2998 colon,446 nM
same,TGI,HCC-2998 colon,4280 nM
same,GI50,HCT-116 colon,178 nM
same,TGI,HCT-116 colon,743 nM
same,GI50,HCT-15 colon,593 nM
same,TGI,HCT-15 colon,4450 nM
same,GI50,HL-60(TB) leukemia,195 nM
same,TGI,HL-60(TB) leukemia,1170 nM
same,GI50,HOP-62 NSCLC,423 nM
same,TGI,HOP-62 NSCLC,4140 nM
same,GI50,HOP-92 NSCLC,253 nM
same,TGI,HOP-92 NSCLC,2870 nM
same,GI50,HS 578T breast,625 nM
same,TGI,HS 578T breast,3300 nM
same,GI50,HT29 colon,199 nM
same,TGI,HT29 colon,14500 nM
same,GI50,IGROV1 ovarian,268 nM
same,TGI,IGROV1 ovarian,4450 nM
same,GI50,K-562 leukemia,5 nM
same,TGI,K-562 leukemia,50000 nM
same,GI50,KM12 colon,5 nM
same,TGI,KM12 colon,2640 nM
same,GI50,LOX IMVI melanoma,183 nM
same,TGI,LOX IMVI melanoma,672 nM
same,GI50,M14 melanoma,163 nM
same,TGI,M14 melanoma,732 nM
same,GI50,MALME-3M melanoma,89.5 nM
same,TGI,MALME-3M melanoma,355 nM
same,GI50,MCF7 breast,136 nM
same,TGI,MCF7 breast,663 nM
same,GI50,MDA-MB-231 breast,205 nM
same,TGI,MDA-MB-231 breast,4150 nM
same,GI50,MDA-MB-435,243 nM
same,TGI,MDA-MB-435,1480 nM
same,GI50,MOLT-4 leukemia,156 nM
same,TGI,MOLT-4 leukemia,5320 nM
same,GI50,NCI-H226 lung,204 nM
same,TGI,NCI-H226 lung,1370 nM
same,GI50,NCI-H23 lung,221 nM
same,TGI,NCI-H23 lung,1010 nM
same,GI50,NCI-H460 lung,501 nM
same,TGI,NCI-H460 lung,1530 nM
same,GI50,NCI-H522 lung,580 nM
same,TGI,NCI-H522 lung,2400 nM
same,GI50,NCI/ADR-RES ovarian,997 nM
same,TGI,NCI/ADR-RES ovarian,4090 nM
same,GI50,OVCAR-3 ovarian,643 nM
same,TGI,OVCAR-3 ovarian,2520 nM
same,GI50,OVCAR-4 ovarian,205 nM
same,TGI,OVCAR-4 ovarian,1980 nM
same,GI50,OVCAR-5 ovarian,335 nM
same,TGI,OVCAR-5 ovarian,5840 nM
same,GI50,OVCAR-8 ovarian,339 nM
same,TGI,OVCAR-8 ovarian,5980 nM
same,GI50,PC-3 prostate,651 nM
same,TGI,PC-3 prostate,4790 nM
same,GI50,RPMI-8226 leukemia,145 nM
same,TGI,RPMI-8226 leukemia,1290 nM
same,GI50,RXF 393 renal,438 nM
same,TGI,RXF 393 renal,1140 nM
same,GI50,SF-268 CNS,622 nM
same,TGI,SF-268 CNS,2590 nM
same,GI50,SF-295 CNS,1010 nM
same,TGI,SF-295 CNS,4710 nM
same,GI50,SF-539 CNS,485 nM
same,TGI,SF-539 CNS,1180 nM
same,GI50,SK-MEL-2 melanoma,335 nM
same,TGI,SK-MEL-2 melanoma,1540 nM
same,GI50,SK-MEL-28 melanoma,212 nM
same,TGI,SK-MEL-28 melanoma,1840 nM
same,GI50,SK-MEL-5 melanoma,595 nM
same,TGI,SK-MEL-5 melanoma,1260 nM
same,GI50,SK-OV-3 ovarian,1630 nM
same,TGI,SK-OV-3 ovarian,7190 nM
same,GI50,SN12C renal,288 nM
same,TGI,SN12C renal,3940 nM
same,GI50,SNB-19 CNS,1220 nM
same,TGI,SNB-19 CNS,5630 nM
same,GI50,SNB-75 CNS,1040 nM
same,TGI,SNB-75 CNS,1990 nM
same,GI50,SR leukemia,293 nM
same,TGI,SR leukemia,50000 nM
same,GI50,SW-620 colon,239 nM
same,TGI,SW-620 colon,2590 nM
same,GI50,T-47D breast,1910 nM
same,TGI,T-47D breast,12300 nM
same,GI50,TK-10 renal,797 nM
same,TGI,TK-10 renal,5810 nM
same,GI50,U251 CNS,727 nM
same,TGI,U251 CNS,2600 nM
same,GI50,UACC-257 melanoma,531 nM
same,TGI,UACC-257 melanoma,4430 nM
same,GI50,UACC-62 melanoma,280 nM
same,TGI,UACC-62 melanoma,1320 nM
same,GI50,UO-31 renal,242 nM
same,TGI,UO-31 renal,1910 nM
